Read-outs that look alike come from different tables or passages of the source.
What was measured:
[1] = cited from earlier work; for sun protection factor (SPF): cream
[2] = system: Candida albicans and staphylococci; details: cited from earlier work
[3] = system: UV-induced erythema; experiment: In vivo photoprotection proof of concept: UVB irradiation of treated skin sites, erythema assessment; set-up: species or system human; details: one Skin Type IV subject
Source text: The Malassezin 1% formulation used in this study contained the following ingredients: Water (aqua)—65.939%; Dimethyl isosorbide—20.000%; Olive Oil Glycereth-8 Esters—3.000%; Glycerin—2.991%; Coconut Alkanes—2.700%; Hydroxyethyl Acrylate/Sodium Acryloyldimethyl Taurate Copolymer—1.700%; Malassezin—1.000%; Pentylene Glycol—1.000%; Phenoxyethanol—0.640%; Coco-Caprylate/Caprate—0.300%; Caprylyl Glycol—0.200%; Chlorphenesin—0.160%; Sorbitan Isostearate—0.140%; Tocopherol—0.100%; Polysorbate 60-0.080%; and Disodium EDTA—0.050%.
A Skin Type IV […] was included in this Proof of Concept study.
A template of 6 squares was placed on the lower left back (1.5 cm×1.5 cm) of the test subject.
Twenty-four hours after irradiation, the subject returned for MED assessment.
A second right lower square was treated twice daily from day 4 to day 7, and a third medial square for one application on day 7. The product vehicle was applied for 7 days twice daily on the left back. The subject returned to the research center for irradiation on day 7. Each test site was irradiated with 120 mJ of UVB exposure. The subject returned in 24 hours for assessment of phototoxicity/photoprotection.
The subject continued the experiment, receiving Malassezin 1% for a total of 14 days. […]

[4] = molecular target: T1, arylhydrocarbon receptor (AhR) (Homo sapiens, UniProt P35869); details: cited from earlier work
T1 sequence (P35869 11-848): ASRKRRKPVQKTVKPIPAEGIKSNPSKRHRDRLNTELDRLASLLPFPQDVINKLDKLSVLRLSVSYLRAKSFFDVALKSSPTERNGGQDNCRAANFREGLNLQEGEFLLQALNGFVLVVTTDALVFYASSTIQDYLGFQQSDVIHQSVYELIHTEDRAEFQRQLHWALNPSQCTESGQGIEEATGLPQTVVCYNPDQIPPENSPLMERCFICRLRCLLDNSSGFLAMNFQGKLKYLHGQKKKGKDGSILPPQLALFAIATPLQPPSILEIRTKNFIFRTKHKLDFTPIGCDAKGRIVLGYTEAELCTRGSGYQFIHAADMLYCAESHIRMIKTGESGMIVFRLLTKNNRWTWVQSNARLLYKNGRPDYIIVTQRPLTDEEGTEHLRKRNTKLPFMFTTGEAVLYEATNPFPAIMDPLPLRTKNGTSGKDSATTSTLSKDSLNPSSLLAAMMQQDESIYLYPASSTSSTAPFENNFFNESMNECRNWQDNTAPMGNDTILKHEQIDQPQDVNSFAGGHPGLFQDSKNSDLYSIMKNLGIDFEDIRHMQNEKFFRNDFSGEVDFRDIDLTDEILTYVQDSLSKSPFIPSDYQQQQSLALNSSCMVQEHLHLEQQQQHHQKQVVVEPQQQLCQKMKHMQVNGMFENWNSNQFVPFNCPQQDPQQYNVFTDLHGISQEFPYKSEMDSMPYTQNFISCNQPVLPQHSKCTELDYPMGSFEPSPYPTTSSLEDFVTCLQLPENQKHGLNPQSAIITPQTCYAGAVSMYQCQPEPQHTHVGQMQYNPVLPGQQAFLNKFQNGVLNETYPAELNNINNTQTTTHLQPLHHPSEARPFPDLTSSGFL

For `O=C(c1c[nH]c2ccccc12)c1nccc2c1[nH]c1ccccc12` [Pityriacitrin], the “sun protection factor (SPF)” value ([1]; pityriacitrin concentration 1.25%) is listed as 1.4, the “sun protection factor (SPF)” value ([1]; pityriacitrin concentration 2.5%) is listed as 1.5 and the “sun protection factor (SPF)” value ([1]; pityriacitrin concentration 5%) is listed as 1.7. The “UV protective effect overall” value ([1]; in vitro and in vivo test methods in humans) was “very weak”, the “UV-protective effect on microflora” value ([2]; Candida albicans and staphylococci) was “UV-protective effect” and the toxicity to microflora ([2]; ranges tested) was “no toxicity”.

For `O=Cc1c(Cc2c[nH]c3ccccc23)[nH]c2ccccc12` [Malassezin, 2-(1H-indol-3-ylmethyl)-1H-indole-3-carbaldehyde], the “UV-protective properties (conclusion of study)” value [3] is listed as “UV-protective properties” and the AhR agonist activity [4] is listed as “known agonist”.

For `O=C1Nc2ccccc2/C1=C1/Nc2ccccc2C1=O` [Indirubin], the AhR agonist activity [4] is given as “known agonist”.
